From patent US7846939B2, “Salts and mixture of 9-oxoacridine-10-acetic acid with 1-alkylamino-1-desoxy-polyols, pharmaceutical compositions containing said agents and treatment methods” (priority 2005, dated 2010)

Tested on: Chlamydia
Assay: Chronic inflammatory diseases of uterus and appendages, 250 mg i.m., 10 injections, with BAT (ofloxacin)
Format: in vivo, human

SMILES: CC1COc2c(N3CCN(C)CC3)c(F)cc3c(=O)c(C(=O)O)cn1c23 (stereo not drawn) [Basic antibacterial therapy, BAT, ofloxacin]
- Alpha-interferon, produced by the peripheral blood leukocytes, induced in culture by the Newcastle disease virus, mean (After treatment): 5.3 log2 IU/ml
- Amount of cytoplasmic granules in peripheral blood PNLs, mean (After treatment): 10.2
- Gamma-interferon, produced by the peripheral blood leukocytes, induced in culture by staphylococcus enterotoxin A, mean (After treatment): 4.7 log2 IU/ml
- Serum interferon, mean (After treatment): 0.8 log2 IU/ml
- Alpha-interferon, produced by the peripheral blood leukocytes, induced in culture by the Newcastle disease virus, mean (Before treatment): 5.1 log2 IU/ml
- Amount of cytoplasmic granules in peripheral blood PNLs, mean (Before treatment): 8.5
- Gamma-interferon, produced by the peripheral blood leukocytes, induced in culture by staphylococcus enterotoxin A, mean (Before treatment): 4.7 log2 IU/ml
- Serum interferon, mean (Before treatment): 0.2 log2 IU/ml
- Etiological recovery (PCR control): 69%
